Test results as given in patent US20240382475A1, “Quinazoline Derivative, Or Preparation Method Therefor And Use Thereof” (Zhejiang Hisun Pharmaceutical Co., Ltd., priority 2021, published 2024).

What was measured:
[1] = tested on: human lung cancer NCI-H2122 subcutaneous xenotransplanted tumor; assay: Pharmacodynamic evaluation in nude mouse subcutaneous xenotransplanted model of human lung cancer NCI-H2122; assay type: in vivo, Balb/c nude mouse; settings: 30 mg/kg each agent
Experimental: The anti-tumor effect and safety of compound 11 of the present invention were evaluated in a Balb/c nude mouse animal model of subcutaneous xenotransplanted NCI-H2122.
BALB/c; nude mice, female, 6-7 weeks old (the age of mice when tumor cells were inoculated), purchased from Jiangsu Jicui Yaokang Biotechnology Co., Ltd.
The solvent control group was given DMSO:castor oil:5% glucose injection=20:10:70 (v/v/v).
(§1) AMG-510: an appropriate amount of AMG-510 was weighed, and an appropriate amount of DMSO:castor oil:5% glucose injection=20:10:70 (v/v/v) was added. After the above mixture was fully dissolved, an appropriate amount of 1 M hydrochloric acid was added, vortexed and mixed to prepare a solution with a concentration of 3 mg/mL.
as §1, with “Compound 11:” for “AMG-510:”, “compound 11” for “AMG-510”
H2122 cells were cultured in 1640 culture medium containing 10% fetal bovine serum and 1% penicillin-streptomycin-amphotericin B solution. H2122 cells in the exponential growth phase were collected and resuspended in matrigel solution (matrigel:PBS=1:1 (V/V)) to a suitable concentration for subcutaneous tumor inoculation in nude mice.
Female Balb/c nude mice were subcutaneously inoculated with about 3.0×10^6H2122 cells on the right sides of their backs. When the average volume of the tumors reaches about 150-200 mm^3, the mice were randomly divided according to the tumor sizes with 6 mice in each group.
• Group 1 (G1), solvent control group; • Group 2 (G2), AMG-510 was given by intragastric administration at a dose of 30 mg/kg; • Group 3 (G3), Example 11 was given by intragastric administration at a dose of 30 mg/kg; • Group 4 (G4), AMG-510 and Example 11 were administered in combination, and the dosages were respectively: AMG-510, 30 mg/kg (QD); Example 11, 30 mg/kg (QD).
After tumor inoculation, routine monitoring included the effects of tumor growth and treatment on the normal behaviors of the animals, specifically the mobility, feeding and drinking, weight gain or loss, eyes, coat and other abnormalities of the experimental animals.
Calculation formulae for a relative tumor volume (RTV), a relative tumor proliferation rate (T/C) and a tumor inhibition percentage (IR) were as follows: • (1) TV (tumor volume)=½×a×b^2, wherein a and b represent the length and width of the tumor respectively; • (2) RTV (relative tumor volume)=Vt/Vo, wherein Vo is the tumor volume measured at the time of administration when grouping (i.e. do), and Vt is the tumor volume at each measurement; • (3) relative tumor proliferation rate T/C (%)=TRTV/CRTV×100%, wherein TRTV is the RTV of the treatment group and CRTV is the RTV of the control group; • (4) Tumor growth inhibition rate TGI(%)=(1−T/C)×100%; wherein, T and C are the relative tumor volumes of the treatment group and the control group at a specific time point. • (5) IR (%)=(1−TWt/TWc)×100%, wherein, TWt is the tumor weight of the treatment group and TWc is the tumor weight of the control group. The anti-tumor evaluation criteria are (cytotoxic drugs): T/C(%)>40% is invalid; T/C(%)≤40%, and after statistical processing, P<0.05 is effective.

OCI-AML5 cells = assay: Inhibition of OCI-AML5 cell proliferation (CellTiter-Glo); assay type: cell-based; settings: Homo sapiens, OCI-AML-5; OCI-AML5 cells (SOS1 N233Y mutation), 120 hours
Experimental: The following method was used to determine the influence of the compounds of the present invention on OCI-AML5 cells proliferation. OCI-AML5 cells (containing SOS1 N233Y mutation) were purchased from Nanjing Kebai Biotechnology Co., Ltd. and cultured in MEMα medium containing 10% fetal bovine serum, 100 U penicillin, and 100 μg/mL streptomycin. The activities of the cells were determined by CellTiter-Glo® Luminescent Cell Viability Assay Kit (Promega, Art. No. G7573).
The experimental method was operated according to the steps in the kit instruction, which were briefly described as follows: the test compounds were first dissolved in DMSO to prepare storage solutions of 10 mM, and then diluted with culture mediums to prepare test samples. The final concentrations of the compounds were 10000 nM to 0.15 nM. Cells in logarithmic phase were inoculated in a 96-well cell culture plate with 1,000 cells per well, after cultured overnight in 5% CO2 incubator at 37° C., the test compounds were added to the incubator to continue the culture for 120 hours. After the culture was completed, 50 μL of CellTiter-Glo detection solution was added to each well, shaken for 5 minutes and then stood for 10 minutes. Then, a Luminescence mode was used to read the luminescence values of each well of the samples on a microplate reader.

IC50 (OCI-AML5 cells) | Compound | Relative tumor volume (x ± S) ([1]; 16 days after administration) | TGI % ([1]; 16 days after administration) | Tumor volume (x ± S) ([1]; Day 0 after administration, intragastric) | Tumor volume (x ± S) ([1]; Day 3 after administration, intragastric) | Tumor volume (x ± S) ([1]; Day 7 after administration, intragastric) | Tumor volume (x ± S) ([1]; Day 10 after administration, intragastric) | Tumor volume (x ± S) ([1]; Day 14 after administration, intragastric) | Tumor volume (x ± S) ([1]; Day 16 after administration, intragastric) | Tumor volume (x ± S) ([1]; Table 11, 16 days after administration, in mm³) | Inhibition rate of tumor weight (%) ([1]; end of the experiment) | Tumor weight (g) (x ± S) ([1]; end of the experiment)
 | C=CC(=O)N1CCN(c2nc(=O)n(-c3c(C)ccnc3C(C)C)c3nc(-c4c(O)cccc4F)c(F)cc23)[C@@H](C)C1 [AMG-510, reference compound] | 2.90 ± 0.26 | 43.0% | 199 ± 21 mm^3 | 263 ± 17 mm^3 | 343 ± 29 mm^3 | 406 ± 38 mm^3 | 538 ± 47 mm^3 | 563 ± 58 mm^3 | 563 ± 58 | 44.3% | 0.4203 ± 0.0447 g
42.9 nM | COc1cc2nc(C)nc(N[C@H](C)c3cccc(C#N)c3C)c2cc1N1CCN2C(=O)CCC2C1 (stereo partly drawn) [Compound 3, 3-((1R)-1-((7-methoxy-2-methyl-6-(6-oxohexahydropyrrolo[1,2-a]pyrazin-2(1H)-yl)quinazolin-4-yl)amino)ethyl)-2-methylbenzonitrile] |  |  |  |  |  |  |  |  |  |  | 
41.1 nM | COc1cc2nc(C)nc(N[C@H](C)c3cccc(C#N)c3C)c2cc1N1CCC(N2CCN(S(C)(=O)=O)CC2)CC1 [Compound 23, (R)-3-(1-((7-methoxy-2-methyl-6-(4-(4-(methylsulfonyl)piperazin-1-yl)piperidin-1-yl)quinazolin-4-yl)amino)ethyl)-2-methylbenzonitrile] |  |  |  |  |  |  |  |  |  |  | 
